Active and inactive are the calls of the source. The calls are words filed in the database; no cut-off is given here.
Columns and labels:
[1] = tested on: Echinochloa oryzicola; experiment: Herbicidal activity against Echinochloa oryzicola under greenhouse condition assessed as growth inhibition at 250 g /ha measured after 33 days; type: functional, organism-based
[2] = tested on: Echinochloa oryzicola; experiment: Herbicidal activity against Echinochloa oryzicola under greenhouse condition assessed as growth inhibition at 500 g /ha measured after 33 days; type: functional, organism-based
[3] = tested on: Schoenoplectiella juncoides; experiment: Herbicide activity against Schoenoplectiella juncoides under greenhouse condition compound treated at emergence-stage measured after 14 to 20 days; type: functional
[4] = tested on: Echinochloa oryzicola; experiment: Herbicidal activity against Echinochloa oryzicola under greenhouse condition assessed as growth inhibition at 1000 g /ha measured after 20 days; type: functional, organism-based
[5] = tested on: Echinochloa oryzicola; experiment: Herbicidal activity against Echinochloa oryzicola grown in water-drained pot under greenhouse condition assessed as growth inhibition at 500 g /ha measured after 42 days; type: functional, organism-based
[6] = tested on: Echinochloa oryzicola; experiment: Herbicidal activity against Echinochloa oryzicola under greenhouse condition assessed as growth inhibition at 1000 g /ha measured after 27 days; type: functional, organism-based
[7] = tested on: Oryza sativa; experiment: Phytotoxicity against two-leaf stage Oryza sativa cv. Nihonbare (rice) planted 3 cm depth measured after […]; type: organism-based; conditions: in vivo
[8] = tested on: Echinochloa oryzicola; experiment: Herbicidal activity against Echinochloa oryzicola under greenhouse condition assessed as growth inhibition at 500 g /ha measured after 42 days; type: functional, organism-based
[9] = tested on: Echinochloa oryzicola; experiment: Herbicide activity against Echinochloa oryzicola under greenhouse condition compound treated at 2 leaf-stage measured after 14 to 20 days; type: functional
[10] = tested on: Echinochloa oryzicola; experiment: Herbicidal activity against Echinochloa oryzicola under greenhouse condition assessed as growth inhibition at 125 g /ha measured after 42 days; type: functional, organism-based
[11] = tested on: Echinochloa oryzicola; experiment: Herbicidal activity against Echinochloa oryzicola under greenhouse condition assessed as time duration of residual effect at 125 g /ha; type: functional
[12] = tested on: Echinochloa oryzicola; experiment: Herbicidal activity against Echinochloa oryzicola at 250 g /ha treated at 1.5 to 2-leaf stage measured after 26 days by outdoor concrete pot test; type: functional, organism-based
[13] = tested on: Sagittaria pygmaea; experiment: Herbicidal activity against Sagittaria pygmaea at 500 g /ha treated at 0.5 to 1-leaf stage measured after 26 days by outdoor concrete pot test; type: functional, organism-based
[14] = tested on: Sagittaria pygmaea; experiment: Herbicide activity against Sagittaria pygmaea under greenhouse condition compound treated at 0.5 leaf-stage measured after 14 to 20 days; type: functional
[15] = tested on: Elatine triandra; experiment: Herbicidal activity against Elatine triandra at 500 g /ha treated at 1 to 2-pairs of leaf stage measured after 26 days by outdoor concrete pot test; type: functional, organism-based
[16] = tested on: Echinochloa oryzicola; experiment: Herbicidal activity against Echinochloa oryzicola grown in water-drained pot under greenhouse condition assessed as growth inhibition at 500 g /ha measured after 27 days; type: functional, organism-based
[17] = tested on: Echinochloa oryzicola; experiment: Herbicidal activity against Echinochloa oryzicola at 500 g /ha treated at 1.5 to 2-leaf stage measured after 26 days by outdoor concrete pot test; type: functional, organism-based
[18] = tested on: Echinochloa oryzicola; experiment: Herbicidal activity against Echinochloa oryzicola under greenhouse condition assessed as growth inhibition at 125 g /ha measured after 20 days; type: functional, organism-based
[19] = tested on: Elatine triandra; experiment: Herbicidal activity against Elatine triandra at 1000 g /ha treated at 1 to 2-pairs of leaf stage measured after 26 days by outdoor concrete pot test; type: functional, organism-based
[20] = tested on: Echinochloa oryzicola; experiment: Herbicidal activity against Echinochloa oryzicola grown in water-drained pot under greenhouse condition assessed as growth inhibition at 125 g /ha measured after 33 days; type: functional, organism-based
[21] = tested on: Echinochloa oryzicola; experiment: Herbicidal activity against Echinochloa oryzicola grown in water-drained pot under greenhouse condition assessed as growth inhibition at 125 g /ha measured after 20 days; type: functional, organism-based
[22] = tested on: Echinochloa oryzicola; experiment: Herbicidal activity against Echinochloa oryzicola under greenhouse condition assessed as growth inhibition at 250 g /ha measured after 20 days; type: functional, organism-based
[23] = tested on: Sagittaria pygmaea; experiment: Herbicidal activity against Sagittaria pygmaea at 1000 g /ha treated at 0.5 to 1-leaf stage measured after 26 days by outdoor concrete pot test; type: functional, organism-based
[24] = tested on: Cyperus serotinus; experiment: Herbicidal activity against Cyperus serotinus at 500 g /ha treated at 1 to 1.5-leaf stage measured after 26 days by outdoor concrete pot test; type: functional, organism-based
[25] = tested on: Echinochloa oryzicola; experiment: Herbicidal activity against Echinochloa oryzicola grown in water-drained pot under greenhouse condition assessed as growth inhibition at 500 g /ha measured after 6 days; type: functional, organism-based

## CC1=C(c2ccccc2)C(=O)N(C(C)(C)c2nc3ccccc3s2)C1
[1]
  growth inhibition (GI): inactive
[2]
  growth inhibition (GI): Active
[3]
  MED: 20 g/acre
[4]
  growth inhibition (GI): Active
[5]
  growth inhibition (GI): inactive
[6]
  growth inhibition (GI): Active
[7]
  MTD: 10 g/acre
[8]
  growth inhibition (GI): Active
[9]
  MED: 1.25 g/acre
[10]
  growth inhibition (GI): Active
[11]
  Time: 30 days
[12]
  growth inhibition (GI): Active
[13]
  growth inhibition (GI): Active
[14]
  MED: 20 g/acre
[15]
  growth inhibition (GI): Active
[16]
  growth inhibition (GI): Active
[17]
  growth inhibition (GI): Active
[18]
  growth inhibition (GI): Active
[19]
  growth inhibition (GI): Active
[20]
  growth inhibition (GI): inactive
[21]
  growth inhibition (GI): inactive
[22]
  growth inhibition (GI): Active
[23]
  growth inhibition (GI): Active
[24]
  growth inhibition (GI): Active
[25]
  growth inhibition (GI): Active

Source: ChEMBL document CHEMBL3046147, “Synthesis and Herbicidal Activity of 1-Arylalkyl-3-pyrrolin-2-one Derivatives” (J Pestic Sci, 2000)
